{
  "source": "patent US9429574B2",
  "about": "“Cancer therapies and methods” (priority 2011, dated 2016)",
  "type_in_all_cases": "cell-based, human",
  "key": {"[1]": {"tested_on": "eIF2alpha phosphorylation", "experiment": "Western blot of eIF2alpha phosphorylation upon thapsigargin ER stress induction", "settings": "three hour TG exposure", "procedure": "Cells were harvested at 50-70% confluency, pelleted by centrifugation, and dissolved in RIPA buffer (10 mM Tris/HCl (pH 7.5), 1 mM EDTA, 1% Triton X-100, 0.1% SDS, 0.1% sodium deoxycholate, 100 mM NaCl) supplemented with protease inhibitors (2 mM PMSF and 1× Complete Mini, Roche). Supernatants were collected, protein concentrations were determined using the BCA assay (Pierce/Thermo Scientific), and proteins were separated in a 10% SDS-polyacrylamide gel. Western blotting followed standard protocols using nitrocellulose membranes (Amersham/GE Healthcare). Signal intensities were analyzed with ImageJ (http://rsb.info.nih.gov/ij/).\nAntibodies used were: anti-BAF47 (SMARCB1/SNF5; BD Biosciences, San Diego, Calif.), anti-phospho-eIF2alpha (119A11; Cell Signaling), anti-beta actin-HRP (Abcam, Cambridge, UK).\nThe CHLA-02-ATRT cell line was obtained from ATCC and kept in neurosphere medium (DMEM/F12 (1:1) with Glutamax, B27, penicillin (100 units/mL), streptomycin (100 μg/mL; all from Invitrogen), HEPES (10 mmol/L), Partricin (0.5 μg/mL, Biochrom); insulin (20 μg/mL; Sigma Aldrich), recombinant human epidermal growth factor (EGF; 20 ng/mL), and rhFGFbasic (20 ng/mL; PAN Biotech)). The human malignant rhabdoid tumor cell line LM (provided by Rupert Handgretinger, Tuebingen, Germany) was kept according to Versteege et al. (Nature 1998). DAOY medulloblastoma cells (provided by Michael Grotzer, Zurich, Switzerland) were kept in EMEM (PAA) supplemented with 10% FBS (Biochrom), 2 mM glutamine, 100 units/mL Penicillin/Streptomycin (Invitrogen), and 2.5 μg/mL Amphotericin B (PAA). Hs683 glioma cell lines (provided by Matthias Simon, Bonn, Germany) were kept in DAOY medium with 1 mM sodium pyruvate, MEM non-essential amino acids, and MEM vitamin solution (all from Invitrogen). SW1783 glioblastoma cells (provided by Matthias Simon, Bonn, Germany) and BT12 AT/RT cells (provided by Michael Grotzer, Zurich, Switzerland) were kept in DMEM (1 g/l glucose) supplemented with 10% FBS (Biochrom), 2 mM glutamine, 100 units/ml Penicillin/Streptomycin (Invitrogen) and 2.5 μg/ml Amphotericin B (PAA).\nMCF7-SNF5-KD#73 cells (Xu et al., 2010) were cultured in DMEM (4.5 g/L glucose, Invitrogen), 10% FBS (Tet System Approved, Clontech), 2 mM glutamine, and 100 units/mL Penicillin/Streptomycin (Invitrogen). For the knock-down of SMARCB1, tetracycline (1 μg/mL) was added on day 1 and 3, and cells harvested at day 4. At day 4, cells were treated with DTT (5 mM) or Thapsigargin (5 μM). 786-O and A-498 cells (both from Angelika Toelle, Charité Berlin, Germany), HepG2 cells (from Peter Nilsson-Ehle, Lund University, Sweden), and G401 (ATCC) were kept in RPMI1640 (PAA) supplemented with 10% FBS (Biochrom), 2 mM glutamine, 100 units/mL Penicillin/Streptomycin (Invitrogen), and 2.5 μg/mL Amphotericin B (PAA). A-204 (ATCC) were grown in McCoy's 5a modified medium supplemented with 10% FBS (Biochrom), 100 units/mL Penicillin/Streptomycin (Invitrogen), and 2.5 μg/mL Amphotericin B (PAA). All cells were kept in T75 tissue culture flasks (Techno Plastic Products)."}, "G401 cells": {"tested_on": "G401 cells", "experiment": "Apoptosis assay (Annexin V/7AAD flow cytometry) in kidney MRT cell line", "settings": "G401 vs DMSO and vs SMARCB1-positive cell lines", "procedure": "(§1) Similarly, G401, A498, 786-O, BT12, SW1783, and DAOY cells were plated into 6-well-plates (200,000 cells per well) and grown for 24 hours before 10 nM BTZ, 30 nM Carfilzomib (CFZ, from Active Biochemicals Co.), or DMSO as vehicle control was added to the cell culture media for another 24 hours. Subsequently, cells were carefully washed with PBS and dissociated by trypsinization. Aliquots of single cell suspensions containing 1×10^5 cells in 100 μL PBS were stained with AnnexinV-APC and 7AAD according to the manufacturer's instructions (BD Biosciences) for 15 min at RT. Subsequently, 400 μL of AnnexinV binding buffer was added (10 mM Hepes, 140 mM NaCl and 2.5 mM CaCl2), cell suspensions were placed on ice and immediately analyzed with a FACSCalibur flow cytometer (BD Biosciences). The data analysis was performed using the FlowJo software (Tree Star). For statistical analyses, an unpaired t-test was conducted using Prism 5.0 (GraphPad)."}, "BT12 cells": {"tested_on": "BT12 cells", "experiment": "Apoptosis assay (Annexin V/7AAD flow cytometry) in brain AT/RT cell line", "settings": "BT12 vs DMSO and vs SMARCB1-positive cell lines", "procedure": "as §1"}, "MCF7-SNF5-KD#73 cells": {"tested_on": "MCF7-SNF5-KD#73 cells", "experiment": "Apoptosis assay (Annexin V/7AAD flow cytometry) in tetracycline-induced SMARCB1 knock-down MCF7 cells", "settings": "10 nM for 12 hours; Tet-induced SMARCB1 knock-down vs non-induced MCF7 cells", "procedure": "500,000 MCF7-SNF5-KD#73 cells (Xu et al., 2010) were plated into T75 tissue culture flasks (Techno Plastic Products). For knockdown experiments, tetracycline (1 μg/mL) was added on day 1 and day 3. In case of Bortezomib (BTZ)-treated cells, the drug (Santa Cruz Biotechnology, final concentration 10 nM) was added for 12 hours on day 4 (at 70-85% confluency).\nas §1"}, "[2]": {"settings": "10 nM BTZ for 24 hours, listed as BTZ"}},
  "note": "Entries after “also recorded” stand apart in the source; their conditions may differ.",
  "data": [
    {"molecule": "C/C=C(/C)C(=O)O[C@H]1C(C)=C2[C@H]([C@@H]1OC(=O)CCCCCCC)[C@@](C)(OC(C)=O)C[C@H](OC(=O)CCC)[C@@]1(O)[C@H]2OC(=O)[C@@]1(C)O", "note": "[TG, Thapsigargin]", "values": [
      {"measurement": "Fold-change of β-actin-normalized phosphorylated eIF2alpha signal intensities between TSG-treated and untreated cells", "setting": "[1]; 786-O (SMARCB1-positive renal cell carcinoma)", "value": 0.60},
      {"measurement": "Fold-change of β-actin-normalized phosphorylated eIF2alpha signal intensities between TSG-treated and untreated cells", "setting": "[1]; A-204 (MRT, muscle origin, lacking SMARCB1)", "value": 1.39},
      {"measurement": "Fold-change of β-actin-normalized phosphorylated eIF2alpha signal intensities between TSG-treated and untreated cells", "setting": "[1]; A-498 (SMARCB1-positive renal cell carcinoma)", "value": 1.12},
      {"measurement": "Fold-change of β-actin-normalized phosphorylated eIF2alpha signal intensities between TSG-treated and untreated cells", "setting": "[1]; CHLA2 (AT/RT, lacking SMARCB1)", "value": 5.89},
      {"measurement": "Fold-change of β-actin-normalized phosphorylated eIF2alpha signal intensities between TSG-treated and untreated cells", "setting": "[1]; DAOY (SMARCB1-positive brain tumor)", "value": 0.77},
      {"measurement": "Fold-change of β-actin-normalized phosphorylated eIF2alpha signal intensities between TSG-treated and untreated cells", "setting": "[1]; G401 (MRT, kidney origin, lacking SMARCB1)", "value": 2.49},
      {"measurement": "Fold-change of β-actin-normalized phosphorylated eIF2alpha signal intensities between TSG-treated and untreated cells", "setting": "[1]; HepG2 (SMARCB1-positive hepatocellular carcinoma)", "value": 0.56},
      {"measurement": "Fold-change of β-actin-normalized phosphorylated eIF2alpha signal intensities between TSG-treated and untreated cells", "setting": "[1]; Hs683 (SMARCB1-positive brain tumor)", "value": 0.81},
      {"measurement": "Fold-change of β-actin-normalized phosphorylated eIF2alpha signal intensities between TSG-treated and untreated cells", "setting": "[1]; LM (MRT, liver origin, lacking SMARCB1)", "value": 1.27},
      {"measurement": "Fold-change of β-actin-normalized phosphorylated eIF2alpha signal intensities between TSG-treated and untreated cells", "setting": "[1]; SW1783 (SMARCB1-positive brain tumor)", "value": 0.75}
    ]},
    {"molecule": "CC(C)C[C@H](NC(=O)[C@H](CCc1ccccc1)NC(=O)CN1CCOCC1)C(=O)N[C@@H](Cc1ccccc1)C(=O)N[C@@H](CC(C)C)C(=O)[C@@]1(C)CO1", "note": "[Carfilzomib]", "values": [
      {"measurement": "Apoptosis (Annexin V-positive and 7AAD-negative cells)", "setting": "G401 cells; 30 nM CFZ for 24 hours", "value": "highest apoptosis; also recorded: increased apoptosis"},
      {"measurement": "Apoptosis (Annexin V-positive and 7AAD-negative cells)", "setting": "BT12 cells; 30 nM CFZ for 24 hours", "value": "highest apoptosis; also recorded: increased apoptosis"}
    ]},
    {"molecule": "CC(C)C[C@H](NC(=O)[C@H](Cc1ccccc1)NC(=O)c1cnccn1)B(O)O", "note": "[Bortezomib, [(1R)-3-methyl-1-({(2S)-3-phenyl-2-[(pyrazin-2-ylcarbonyl)-amino]propanoyl}amino)butyl]boronic acid]", "values": [
      {"measurement": "Apoptosis (Annexin V-positive and 7AAD-negative cells)", "setting": "MCF7-SNF5-KD#73 cells", "value": "increased apoptosis"},
      {"measurement": "Apoptosis (Annexin V-positive and 7AAD-negative cells)", "setting": "G401 cells; 10 nM BTZ for 24 hours", "value": "increased apoptosis"},
      {"measurement": "Apoptosis (Annexin V-positive and 7AAD-negative cells)", "setting": "G401 cells; [2]", "value": "highest apoptosis"},
      {"measurement": "Apoptosis (Annexin V-positive and 7AAD-negative cells)", "setting": "BT12 cells; 10 nM BTZ for 24 hours", "value": "increased apoptosis"},
      {"measurement": "Apoptosis (Annexin V-positive and 7AAD-negative cells)", "setting": "BT12 cells; [2]", "value": "highest apoptosis"}
    ]}
  ]
}
